Experimental data as given in patent US8871681B2, “Herbicidal compositions comprising 4-amino-3-chloro-5-fluoro-6-(4-chloro-2-fluoro-3-methoxyphenyl) pyridine-2-carboxylic acid or a derivative thereof and certain sulfonylureas” (Dow AgroSciences LLC, priority 2012, dated 2014).

Assays:
[1] = tested on: FIMMI (Fimbristylis miliacea, globe fringerush); assay: In-water applied weed control, transplanted paddy rice, greenhouse (Example II); format: in vivo, Fimbristylis miliacea (L.) Vahl
Method: Weed seeds or nutlets of the desired test plant species were planted in puddled soil (mud) prepared by mixing a shredded, non-sterilized mineral soil (50.5 percent silt, 25.5 percent clay, and 24 percent sand, with a pH of about 7.6 and an organic matter content of about 2.9 percent) and water at a 1:1 volumetric ratio. The prepared mud was dispensed in 365 mL aliquots into 16-ounce (oz.) non-perforated plastic pots with a surface area of 86.59 square centimeters (cm^2) leaving a headspace of 3 centimeters (cm) in each pot. Rice seeds were planted in Sun Gro MetroMix® 306 planting mixture, which typically has a pH of 6.0 to 6.8 and an organic matter content of about 30 percent, in plastic plug trays. Seedlings at the second or third leaf stage of growth were transplanted into 860 mL of mud contained in 32-oz. non-perforated plastic pots with a surface area of 86.59 cm^2 4 days prior to herbicide application. The paddy was created by filling the headspace of the pots with 2.5 to 3 cm of water. When required to ensure good germination and healthy plants, a fungicide treatment and/or other chemical or physical treatment was applied. The plants were grown for 4-22 days in a greenhouse with an approximate 14 h photoperiod which was maintained at about 29′C during the day and 26° C. during the night. Nutrients were added as Osmocote® (19:6:12, N:P:K+minor nutrients) at 2 g per 16-oz. pot and 4 g per 32-oz. pot. Water was added on a regular basis to maintain the paddy flood, and supplemental lighting was provided with overhead metal halide 1000-Watt lamps as necessary. The plants were employed for testing when they reached the first through fourth true leaf stage.
Treatments consisted of the acid or esters of 4-amino-3-chloro-5-fluoro-6-(4-chloro-2-fluoro-3-methoxy-phenyl)pyridine-2-carboxylic acid (compound A) each formulated as an SC and various herbicidal components alone and in combination. Forms of compound A were applied on an acid equivalent basis.
Other herbicidal components were applied on an active ingredient basis and included acetolactate synthase (ALS)-inhibiting herbicides (sulfonylurea chemical class), azimsulfuron formulated as Gulliver®, bensulfuron-methyl formulated as Londax® 60DF, cyclosulfamuron (technical grade materail), ethoxysulfuron formulated as Sunrice® 15 WDG, flucetosulfuron formulated as Sukedachi® 1KG G, imazosulfuron formulated as Brazzos®, metsulfuron-methyl formulated as Lorate®, nicosulfuron formulated as Accent®, orthosulfamuron formulated as Strada® WG, propyrisulfuron formulated as Zeta One®, and rimsulfuron formulated as Matrix® WG.
Treatment requirements for each compound or herbicidal component were calculated based upon the rates being tested, the concentration of active ingredient or acid equivalent in the formulation, an application volume of 2 mL per component per pot, and an application area of 86.59 cm^2 per pot.
For formulated compounds, a measured amount was placed in an individual 100 or 200 mL glass vial and was dissolved in a volume of 1.25% (v/v) Agri-Dex® crop oil concentrate to obtain application solutions.
For technical grade compounds, a weighed amount was placed in an individual 100 to 200 mL glass vial and was dissolved in a volume of acetone to obtain concentrated stock solutions. […] The concentrated stock solutions obtained were diluted with an equivalent volume of an aqueous mixture containing 2.5% (v/v) crop oil concentrate so that the final application solutions contained 1.25% (v/v) crop oil concentrate.
Applications were made by injecting with a pipetter appropriate amounts of the application solutions, individually and sequentially, into the aqueous layer of the paddy. Control plants were treated in the same manner with the solvent blank. Applications were made so that all treated plant material received the same concentrations of acetone and crop oil concentrate. […]

[2] = tested on: GALAP (Galium aparine, cleavers); assay: Post-emergence foliar-applied weed control in cereal crops, greenhouse (Example III); format: in vivo, Galium aparine (L.); details: Table 51, after 20-22 days, 8.75 gai/ha alone
Method: Seeds of the desired test plant species were planted in Sun Gro MetroMix® 306 planting mixture, which typically has a pH of 6.0 to 6.8 and an organic matter content of about 30 percent, in plastic pots with a surface area of 103.2 square centimeters (cm^2). When required to ensure good germination and healthy plants, a fungicide treatment and/or other chemical or physical treatment was applied. The plants were grown for 7-36 days in a greenhouse with an approximate 14 hour photoperiod which was maintained at about 18° C. during the day and 17° C. during the night. Nutrients and water were added on a regular basis and supplemental lighting was provided with overhead metal halide 1000-Watt lamps as necessary. […]
Measured aliquot of benzyl ester of 4-amino-3-chloro-5-fluoro-6-(4-chloro-2-fluoro-3-methoxy-phenyl)pyridine-2-carboxylic acid (Compound A) was placed in 25 milliliter (mL) glass vials and diluted in a volume of 1.25% (v/v) Agri-dex crop oil concentrated to obtain stock solutions. […]
The treated plants and control plants were placed in a greenhouse as described above and watered by sub-irrigation to prevent wash-off of the test compounds. After 20-22 days, the condition of the test plants as compared with that of the control plants was determined visually and scored on a scale of 0 to 100 percent where 0 corresponds to no injury and 100 corresponds to complete kill. […]

[3] = tested on: LAMPU (Lamium purpureum, purple deadnettle); assay: as above; format: in vivo, Lamium purpureum (L.)
Method: Seeds of the desired test plant species were planted in Sun Gro MetroMix® 306 planting mixture, which typically has a pH of 6.0 to 6.8 and an organic matter content of about 30 percent, in plastic pots with a surface area of 103.2 square centimeters (cm^2). When required to ensure good germination and healthy plants, a fungicide treatment and/or other chemical or physical treatment was applied. The plants were grown for 7-36 days in a greenhouse with an approximate 14 hour photoperiod which was maintained at about 18° C. during the day and 17° C. during the night. Nutrients and water were added on a regular basis and supplemental lighting was provided with overhead metal halide 1000-Watt lamps as necessary. The plants were employed for testing when they reached the second or third true leaf stage.
Treatments consisted of the benzyl ester of 4-amino-3-chloro-5-fluoro-6-(4-chloro-2-fluoro-3-methoxy-phenyl)pyridine-2-carboxylic acid (Compound A), formulated as an SC (suspension concentrate), and a second cereal herbicide alone and in combination.
Measured aliquot of benzyl ester of 4-amino-3-chloro-5-fluoro-6-(4-chloro-2-fluoro-3-methoxy-phenyl)pyridine-2-carboxylic acid (Compound A) was placed in 25 milliliter (mL) glass vials and diluted in a volume of 1.25% (v/v) Agri-dex crop oil concentrated to obtain stock solutions. Compound requirements are based upon a 12 mL application volume at a rate of 187 liters per hectare (L/ha). Spray solutions of the second cereal herbicide and experimental compound mixtures were prepared by adding the stock solutions to the appropriate amount of dilution solution to form 12 mL spray solution with active ingredients in two- and three-way combinations. Formulated compounds were applied to the plant material with an overhead Mandel track sprayer equipped with an 8002E nozzle calibrated to deliver 187 L/ha over an application area of 0.503 square meters (m^2) at a spray height of 18 inches (46 cm) above average plant canopy. Control plants were sprayed in the same manner with the solvent blank.
The treated plants and control plants were placed in a greenhouse as described above and watered by sub-irrigation to prevent wash-off of the test compounds. After 20-22 days, the condition of the test plants as compared with that of the control plants was determined visually and scored on a scale of 0 to 100 percent where 0 corresponds to no injury and 100 corresponds to complete kill.
Colby's equation was used to determine the herbicidal effects expected from the mixtures (Colby, S. R. 1967. Calculation of the synergistic and antagonistic response of herbicide combinations. Weeds 15:20-22.).
The following equation was used to calculate the expected activity of mixtures containing two active ingredients, A and B: Expected=A+B−(A×B/100)

Structure (SMILES): COc1c(Cl)ccc(-c2nc(C(=O)OCc3ccccc3)c(Cl)c(N)c2F)c1F [Compound A Benzyl Ester]
- Visual Weed Control (%) - 21 DAA FIMMI Obs ([1]; Table 48, 8 gae/ha alone): 15%
- Visual Weed Control (%) - 21 DAA FIMMI Obs ([1]; Table 48, 16 gae/ha alone): 65%
- Visual Weed Control (%) - 21 DAA FIMMI Obs ([1]; Table 48, 32 gae/ha alone): 75%
- Weed Control GALAP Obs [2]: 70%
- Weed Control LAMPU Obs ([3]; Table 51, after 20-22 days, 8.75 gai/ha alone): 83%
- Weed Control LAMPU Obs ([3]; Table 57, after 20-22 days, 8.75 gai/ha Compound A Benzyl Ester alone): 83%
